Source: patent US10781182B2, “Compounds, process for obtaining the compounds, pharmaceutical composition, use of the compounds and method for treating psychiatric disorders and/or sleep disorders” (ACHÉ LABORATÓRIOS FARMACÊUTICOS S.A., priority 2016, dated 2020)
Values after ≈ are worked out from the molar mass of the structure shown.

Assays:
[1] = system: melatonin receptors; details: Depreux et al. 1994; cited from earlier work
[2] = target: CYP2D6 (Homo sapiens (Human), UniProt P10635); test: CYP inhibition, fluorogenic substrate; format: in vitro ADME; design: dose or concentration left out as unconfirmed; details: recombinant CYP2D6, pH 7.4
Text: (§1) The CYP inhibition test used fluorogenic substrates specific to each CYP to check for inhibition thereof by detection of the expected metabolite using a fluorimetric method. Recombinant CYPs (CYP2B6, CYP2C8, […], CYP2C19, CYP2D6, CYP3A4) from specific humans for each cytochrome family, subfamily and polypeptide were used. The following were used as substrates: CEC (3-Cyano-7-Ethoxycoumarin) which forms as metabolite CHC (3-Cyano-7-Hydroxycoumarin); EFC (7-Ethoxy-4-trifluoromethyl coumarin), forming the metabolite HFC (7-Hydroxytri fluoromethylcoumarin); DBF (Dibenzylfluorescein) and its respective fluorescein metabolite; MFC (7-Methoxy-4-trifluoromethylcoumarin) which forms the metabolite HFC (7-Hydroxytrifluoromethylcoumarin); BFC (7-Benzyloxy-Trifluoromethylcoumarin) and its metabolite HFC; and BzRes (benzyloxyresorufin) to form resofurine. The detection of the metabolite was done with a fluorimetric method: analytical technique to identify and characterize the amount of substance by excitation using a beam of ultraviolet light and measurement of the emitted fluorescence. For detection, a 96-well plate was used. Each sample was tested in two wells (n=2) as standard condition. At least 04 wells were separated for vehicle (control). Compounds were tested at a concentration […], standard for this assay. They were preincubated with a NADPH generator system in a phosphate buffer (pH 7.4) for 5 minutes at 37° C. The reaction was started by adding the specific CYP enzymes, substrate and bovine serum albumin (BSA<0.4 mg/ml). Incubations were performed between 20-50 minutes at 37° C. according to the specific parameter of each fluorogenic substrate, for the evaluated component. Fluorescence at each well was detected before and after the incubation period.

[3] = target: CYP2C19 (Homo sapiens (Human), UniProt P33261); test: CYP inhibition, fluorogenic substrate; format: in vitro ADME; design: dose or concentration left out as unconfirmed; details: recombinant CYP2C19, pH 7.4
Text: as §1

[4] = target: CYP2B6 (Homo sapiens (Human), UniProt P20813); test: CYP inhibition, fluorogenic substrate; format: in vitro ADME; design: dose or concentration left out as unconfirmed; details: recombinant CYP2B6, pH 7.4
Text: as §1

[5] = target: CYP2C9 (Homo sapiens (Human), UniProt P11712); test: CYP inhibition, fluorogenic substrate; format: in vitro ADME; design: dose or concentration left out as unconfirmed; details: recombinant CYP2C9, pH 7.4
Text: as §1

[6] = target: CYP2C8 (Homo sapiens (Human), UniProt P10632); test: CYP inhibition, fluorogenic substrate; format: in vitro ADME; design: dose or concentration left out as unconfirmed; details: recombinant CYP2C8, pH 7.4
Text: as §1

[7] = system: human hepatocytes; test: Intrinsic clearance in cryopreserved human hepatocytes; format: in vitro ADME
Description: (§2) Cryopreserved hepatocytes from humans, rats (Sprague-Dawley males) and from mice (CD-1 males) were used for incubation at different times (0, 0.5, 1, 1.5, 2 hours) at 37° C. followed by HPLC-MS/MS detection. The aim was to verify the clearance time of the test substance on hepatocytes. The experiment was performed on a 96-well plate and the cryopreserved hepatocytes were thawed and resuspended in Krebs-Heinslet buffer(pH 7.3). The reaction was started by adding each test compound to each cell suspension and performing the incubation at the times indicated above. The reaction was quenched with addition of acetonitrile in the wells and detection by HPLC-MS/MS (mass spectrometry). MS/MS is performed by combining two mass detectors into a single instrument.

[8] = Permeability in Caco-2 cells; format: in vitro ADME; details: human, Caco-2, pH 6.5, 37° C.; for Papp A→B at 60 min: apical to basolateral, read-out: Permeability A-B (pH 6.5/7.4); for Papp B→A at 40 min: basolateral to apical, read-out: Permeability B-A (pH 6.5/7.4)
Description: Permeability tests were performed using Caco-2 cells, a colorectal epithelial adenocarcinoma cell line. These cells resemble intestinal epithelial cells in some aspects, such as the formation of a polarized monolayer, a well-defined brush border on the apical surface, and intercellular junctions.
The test is performed in both directions [apical to basolateral (A-B) and basolateral to apical (B-A)] through the cell monolayer, allowing an efflux ratio that provides an indicator as to whether a compound undergoes active efflux. Particle detection was performed with HPLC-MS/MS (mass spectrometry) according to the calculation of the peak area of the result. MS/MS was performed by combining two mass detectors in a single instrument.
A-B permeability was performed at pH 6.5/7.4 with incubation time of 0 and 60 minutes at 37° C. and B-A permeability was performed at pH 6.5/7.4 with incubation time of 0 and 40 minutes at 37° C.

[9] = system: rat hepatocytes (Sprague-Dawley males); test: Intrinsic clearance in cryopreserved rat hepatocytes; format: in vitro ADME
Description: as §2

[10] = Water solubility (shake-flask, PBS pH 7.4); format: physicochemical; details: aqueous buffer, thermodynamic from solid
Description: In addition, chromatographic purity (%) was defined as the calculation of the main peak area relative to the calculation of the peak area integrate of the standard HPLC calibration chromatogram. A standard calibration chromatogram was then generated for each compound tested along with a UV/VIS spectrum with maximal labeled absorbance. The shake-flash technique was used with constant stirring during incubation to keep a uniform medium for 24 hours in PBS at pH 7.4.

[11] = system: mouse hepatocytes (CD-1 males); test: Intrinsic clearance in cryopreserved mouse hepatocytes; format: in vitro ADME
Description: as §2

[12] = conjugate acid, J. Org. Chem. 1961; cited from earlier work
[13] = Pharmacokinetics (PK) in rat, I.V. and oral; format: in vivo, Wistar-Han rats; details: oral 10 mg/kg; for AUC(0-t): Wistar-Han, plasma
Description: […] The study lasted for 2 weeks (including acclimation time and study), in which the route of administration was made by injection into the caudal vein and oral gavage. The treatment was carried out in a single dose: I.V. group with dose of 1 mg/kg and Oral group with dose of 10 mg/kg. […] Clinical observations were made twice a day (morning and afternoon) in the pre-dose at the 08 time points defined in the protocol. Blood collection was performed after euthanasia in the pre-dose animals at 08 defined time points and at 24 hours post-dose. The pharmacokinetic analysis parameters detected for Group IV were: half-life (t½), drug concentration at time zero (C0), last measurable plasma concentration (AUClast), area under the plasma concentration curve extrapolation percentage (AUC % ext), area under the plasma concentration curve extrapolation to infinity (AUCinf), volume of distribution (Vz), steady state volume of distribution (Vss), clearance (CL) and mean residence time (MRT). The parameters evaluated for the Oral group were: bioavailability (F %), maximum concentration reached (Cmax), time to reach maximum plasma concentration (Tmax), last measurable plasma concentration (AUClast), area under the plasma concentration curve extrapolation percentage (AUC % ext), area under the plasma concentration curve extrapolation to infinity (AUCinf), area under the plasma concentration curve extrapolation to infinity versus dose (AUCinf/Dose), half-Life (t½), and mean residence time (MRT).

[14] = target: CYP1A2 (Homo sapiens (Human), UniProt P05177); test: CYP inhibition, fluorogenic substrate; format: in vitro ADME; design: inhibition: dose or concentration left out as unconfirmed; details: human, recombinant CYP1A2, pH 7.4
Text: as §1

[15] = oral, estimated, from literature; cited from earlier work

CYP2D6, sequence (P10635 whole entry): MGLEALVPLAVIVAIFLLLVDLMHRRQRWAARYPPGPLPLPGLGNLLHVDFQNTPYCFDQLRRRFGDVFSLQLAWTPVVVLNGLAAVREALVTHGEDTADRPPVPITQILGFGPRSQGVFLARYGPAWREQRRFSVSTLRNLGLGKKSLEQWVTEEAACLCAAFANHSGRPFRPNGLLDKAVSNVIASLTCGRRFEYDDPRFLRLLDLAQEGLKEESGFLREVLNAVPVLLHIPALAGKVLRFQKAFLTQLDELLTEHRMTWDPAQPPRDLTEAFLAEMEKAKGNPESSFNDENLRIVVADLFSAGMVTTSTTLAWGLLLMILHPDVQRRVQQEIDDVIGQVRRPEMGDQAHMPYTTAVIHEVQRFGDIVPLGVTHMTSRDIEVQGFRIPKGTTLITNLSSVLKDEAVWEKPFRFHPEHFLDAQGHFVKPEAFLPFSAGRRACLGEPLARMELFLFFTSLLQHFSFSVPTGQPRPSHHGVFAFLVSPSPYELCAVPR
CYP2C9, sequence (P11712 whole entry): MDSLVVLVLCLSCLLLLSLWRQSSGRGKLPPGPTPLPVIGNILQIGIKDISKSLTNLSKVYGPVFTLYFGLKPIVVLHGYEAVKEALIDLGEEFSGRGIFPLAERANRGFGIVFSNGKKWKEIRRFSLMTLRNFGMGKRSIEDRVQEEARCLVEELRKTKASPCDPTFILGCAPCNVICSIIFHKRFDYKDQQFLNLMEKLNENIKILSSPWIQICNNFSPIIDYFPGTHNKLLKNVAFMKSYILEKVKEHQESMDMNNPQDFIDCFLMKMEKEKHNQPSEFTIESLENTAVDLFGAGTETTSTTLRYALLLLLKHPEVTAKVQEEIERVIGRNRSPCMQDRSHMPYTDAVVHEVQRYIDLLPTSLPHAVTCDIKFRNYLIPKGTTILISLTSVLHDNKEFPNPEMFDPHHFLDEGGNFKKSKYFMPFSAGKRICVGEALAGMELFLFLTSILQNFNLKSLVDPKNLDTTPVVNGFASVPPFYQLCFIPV
CYP2C19, sequence (P33261 whole entry): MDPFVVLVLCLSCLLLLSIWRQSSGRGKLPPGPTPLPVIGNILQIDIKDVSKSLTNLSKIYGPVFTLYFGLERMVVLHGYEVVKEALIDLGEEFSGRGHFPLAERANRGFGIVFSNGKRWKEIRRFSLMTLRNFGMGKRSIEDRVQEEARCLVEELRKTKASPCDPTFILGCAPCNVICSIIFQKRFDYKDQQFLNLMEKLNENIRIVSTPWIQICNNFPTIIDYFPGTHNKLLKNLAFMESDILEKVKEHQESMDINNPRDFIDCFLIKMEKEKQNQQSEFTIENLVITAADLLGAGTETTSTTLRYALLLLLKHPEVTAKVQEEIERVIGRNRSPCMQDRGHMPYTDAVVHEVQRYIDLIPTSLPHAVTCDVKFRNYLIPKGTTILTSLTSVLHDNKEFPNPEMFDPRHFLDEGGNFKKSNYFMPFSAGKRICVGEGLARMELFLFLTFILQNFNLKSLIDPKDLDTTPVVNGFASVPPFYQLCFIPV
CYP2B6, sequence (P20813 whole entry): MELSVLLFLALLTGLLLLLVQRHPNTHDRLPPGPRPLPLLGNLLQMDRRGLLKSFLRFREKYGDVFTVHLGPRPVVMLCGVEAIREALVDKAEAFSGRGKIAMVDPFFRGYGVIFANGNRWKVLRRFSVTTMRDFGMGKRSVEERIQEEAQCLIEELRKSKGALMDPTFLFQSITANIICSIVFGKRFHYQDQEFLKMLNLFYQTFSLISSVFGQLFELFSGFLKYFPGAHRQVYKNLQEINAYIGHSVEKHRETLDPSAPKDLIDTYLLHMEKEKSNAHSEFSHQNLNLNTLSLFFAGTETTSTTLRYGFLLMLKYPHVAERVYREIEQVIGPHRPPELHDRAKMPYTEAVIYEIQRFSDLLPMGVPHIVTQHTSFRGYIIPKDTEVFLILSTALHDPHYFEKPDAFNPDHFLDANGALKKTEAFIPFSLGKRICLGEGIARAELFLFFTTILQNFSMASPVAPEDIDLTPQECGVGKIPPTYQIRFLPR
CYP2C8, sequence (P10632 whole entry): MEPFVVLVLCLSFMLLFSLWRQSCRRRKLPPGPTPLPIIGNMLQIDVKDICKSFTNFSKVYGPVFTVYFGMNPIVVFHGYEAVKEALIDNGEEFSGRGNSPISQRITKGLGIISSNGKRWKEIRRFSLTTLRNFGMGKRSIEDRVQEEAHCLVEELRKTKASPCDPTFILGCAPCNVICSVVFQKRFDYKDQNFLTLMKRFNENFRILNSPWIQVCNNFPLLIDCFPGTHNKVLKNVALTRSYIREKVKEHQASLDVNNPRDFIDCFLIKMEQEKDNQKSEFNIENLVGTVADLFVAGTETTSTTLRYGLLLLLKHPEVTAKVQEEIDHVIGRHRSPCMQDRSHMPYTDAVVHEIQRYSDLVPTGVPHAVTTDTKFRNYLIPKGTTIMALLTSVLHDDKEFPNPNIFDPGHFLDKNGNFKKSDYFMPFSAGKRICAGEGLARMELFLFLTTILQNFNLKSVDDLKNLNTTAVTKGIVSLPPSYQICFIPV
CYP1A2, sequence (P05177 whole entry): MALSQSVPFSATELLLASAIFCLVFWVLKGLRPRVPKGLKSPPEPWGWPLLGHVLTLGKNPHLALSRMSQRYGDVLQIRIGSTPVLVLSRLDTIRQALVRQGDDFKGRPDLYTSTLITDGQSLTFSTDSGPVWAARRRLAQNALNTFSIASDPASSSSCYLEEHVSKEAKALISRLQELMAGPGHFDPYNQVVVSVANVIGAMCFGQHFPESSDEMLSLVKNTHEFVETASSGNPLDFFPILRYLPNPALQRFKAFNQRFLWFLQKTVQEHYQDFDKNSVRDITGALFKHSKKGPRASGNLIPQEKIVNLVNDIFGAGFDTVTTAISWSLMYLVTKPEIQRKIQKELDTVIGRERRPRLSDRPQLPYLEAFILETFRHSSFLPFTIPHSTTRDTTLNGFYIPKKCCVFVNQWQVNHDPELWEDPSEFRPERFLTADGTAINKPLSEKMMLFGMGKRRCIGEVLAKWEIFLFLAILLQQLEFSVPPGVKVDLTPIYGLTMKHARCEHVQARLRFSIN

SMILES	affinity, times lower than melatonin affinity [1]	inhibition [2]	inhibition [3]	inhibition [4]	inhibition [5]	inhibition [6]	Intrinsic clearance half-life, Human [7]	Papp A→B at 60 min [8]	Papp B→A at 40 min [8]	Intrinsic clearance half-life, Rat Sprague-Dawley [9]	solubility at 24 h [10]	Intrinsic clearance half-life, Mouse CD-1 [11]	pKa [12]	AUC(0-t) [13]	AUClast [13]	inhibition [14]	absolute bioavailability [15]
COc1ccc2ncn(CCNC(C)=O)c2c1 [N-[2-(6-methoxybenzimidazol-1-yl)-ethyl]acetamide]	approximately 3,200 times																
CCOc1nc2ccc(OC)cc2n1CCCNC(C)=O [IA2-120]		-0.3%	6.4%	7.9%	26.7%	9.1%	>2 h	32.1 ×10⁻⁶ cm/s	29.5 ×10⁻⁶ cm/s	0.883 h	200 µM (≈ 58.3 µg/mL)	>2 h					
c1ccc2[nH]cnc2c1 [unsubstituted benzimidazole, benzimidazole]													above 6				
COc1cc2c(cc1Cl)nc(OC)n2CCNC(C)=O [IA2-143]		0.8%	10%	-1.1%	-9.6%	-13%		21.3 ×10⁻⁶ cm/s	71.8 ×10⁻⁶ cm/s	1.8 h	197 µM (≈ 58.6 µg/mL)			4050 ng·h/mL	4049 ng·h/mL	1.4%	
COc1ccc2nc(OC)n(CCCNC(C)=O)c2c1 [IA2-140]		0.3%	7.2%	0.4%	2.6%	-2.2%	>2 h	27.3 ×10⁻⁶ cm/s	55.1 ×10⁻⁶ cm/s	>2 h	197 µM (≈ 54.7 µg/mL)	>2 h		2440 ng·h/mL		-0.7%	
CCOc1nc2cc(Cl)c(OC)cc2n1CCCNC(C)=O [IA2-142]		6.9%	27.7%	0.5%	13%	-4.7%	>2 h	34 ×10⁻⁶ cm/s	57.8 ×10⁻⁶ cm/s	>2 h	181 µM (≈ 58.9 µg/mL)	>2 h					
CCC(=O)NCC[C@@H]1CCc2ccc3c(c21)CCO3 [ramelteon]																	1.8%
CCOc1nc2cc(Cl)c(OC)cc2n1CCNC(C)=O [IA2-121]		0.9%	33.8%	8.4%	23.7%	7%	>2 h	58.2 ×10⁻⁶ cm/s	32.1 ×10⁻⁶ cm/s	0.867 h	200 µM (≈ 62.4 µg/mL)	>2 h					
